SMILES strings stand for the structures.

The values that follow come from patent US20260015358A1, “BICYCLIC DERIVATIVES, COMPOSITIONS AND USES THEREOF” (Danatlas Pharmaceuticals Co., Ltd., priority 2023, published 2026).

Assay [1] deals with T1, WRN [UniPro: Q14191 (WRN_HUMAN), N500-C946] (Homo sapiens (Human), UniProt Q14191). Nature of the assay: WRN ATPase assay (ADP-Glo). Format: biochemical. The note with it: WRN enzymatic activity assay. The protocol:
WRN ATPase assay was initiated to evaluate potential inhibitory effect of compounds for ATP hydrolysis activity of WRN protein. WRN [UniPro: Q14191 (WRN_HUMAN), N500-C946] was expressed and purified in insect system and stored at −80° C. in aliquots. […] ADP quantity produced from ATP hydrolysis by WRN catalytic reaction was measured using a commercially available ADP-Glo Assay (ADP-Glo™ Kinase Assay from Promega, 10000 assays, #V9102). […] Compounds dissolved in DMSO (Sigma, D8418) were plated into a 96-well intermediate plate (BioFil, VWP-032-096) for 3-fold serial titration for 10 points using DMSO, and well-to-well transfer the titrated compounds into another 96-well intermediate plate including assay buffer in advance. Shake the 96-well intermediate plate at 600 rpm for 10 min to fully mix. Specifically, a 4× working mixture of WRN was diluted to a concentration of 8 nM in assay buffer. […] After centrifuging at 1000 rpm and shaking at 500 rpm, the assay plate was pre-incubated for 30 min. Then, 5 μL 2×FORKF DNA and ATP working mixture was dispensed into assay plate. Plate was sealed, centrifuged and incubated for an additional 40 min. at 37° C. The reaction was stopped with the addition of 10 μL of the first ADP-Glo reagent and incubated for 40 min. to remove the excess amount of ATP. Afterwards, 20 μL of ATP detection reagent was added and incubated for 30 min. before reading. Luminescence output was recorded using BMG CLARIO star plus reader. Each concentration of compound was tested in duplicates in the assay plate. Average luminescence signal of high control (Wells with 1% DMSO) was calculated as High Control (HC). Average luminescence signal of low control (Wells with no WRN protein) was calculated as Low control (LC).
IC50 values were determined by fitting the data to the standard 4 parameters with Hill Slope using GraphPad Prism software.

Assay [2] has as its target T1, WRN [UniPro: Q14191 (WRN_HUMAN), N500-C946]. Nature of the assay: WRN unwinding assay (FORKF DNA, fluorescence). In kind it is biochemical. To be noted: Table 14.

T1 sequence (Q14191 500-946): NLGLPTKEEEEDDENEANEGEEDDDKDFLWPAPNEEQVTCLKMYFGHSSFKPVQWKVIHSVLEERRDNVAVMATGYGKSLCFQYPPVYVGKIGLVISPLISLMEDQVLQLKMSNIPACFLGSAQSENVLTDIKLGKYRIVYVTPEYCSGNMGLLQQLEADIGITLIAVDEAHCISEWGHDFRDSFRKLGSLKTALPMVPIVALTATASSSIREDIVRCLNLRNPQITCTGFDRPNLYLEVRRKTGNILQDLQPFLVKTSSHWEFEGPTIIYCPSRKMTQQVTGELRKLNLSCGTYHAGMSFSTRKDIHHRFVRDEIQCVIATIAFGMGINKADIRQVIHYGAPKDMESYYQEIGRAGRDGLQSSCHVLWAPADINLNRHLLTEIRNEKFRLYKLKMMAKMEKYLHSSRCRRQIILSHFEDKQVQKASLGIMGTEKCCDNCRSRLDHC

For orientation: IC50 means the midpoint of a concentration-inhibition curve. Lower therefore signals greater potency in that assay. For `CCc1c(N2CCN(C(=O)CNC(=O)c3cccc(F)c3O)CC2)c(=O)n2nc(C3=CCOCC3)nc2n1CC(=O)Nc1ccc(C(F)(F)F)cc1Cl` [Example 211, N-(2-(4-(4-(2-((2-Chloro-4-(trifluoromethyl)phenyl)amino)-2-oxoethyl)-2-(3,6-dihydro-2H-pyran-4-yl)-5-ethyl-7-oxo-4,7-dihydro-[1,2,4]triazolo[1,5-a]pyrimidin-6-yl)piperazin-1-yl)-2-oxoethyl)-3-fluoro-2-hydroxybenzamide], the 50% inhibitory concentration (IC50) in assay [1] and in assay [2] was under 100 nM in each case.
Regarding `CCc1c(N2CCN(C(=O)CNC(=O)c3cc(C)on3)CC2)c(=O)n2nc(C3=CCOCC3)nc2n1CC(=O)Nc1ccc(C(F)(F)F)cc1Cl` [Example 107, N-(2-(4-(4-(2-((2-Chloro-4-(trifluoromethyl)phenyl)amino)-2-oxoethyl)-2-(3,6-dihydro-2H-pyran-4-yl)-5-ethyl-7-oxo-4,7-dihydro-[1,2,4]triazolo[1,5-a]pyrimidin-6-yl)piperazin-1-yl)-2-oxoethyl)-5-methylisoxazole-3-carboxamide], the concentration for half-maximal inhibition (IC50) in assay [1] and in assay [2] was under 100 nM throughout.
With `CCc1c(N2CCN(C(=O)CNC(=O)c3ccccc3Br)CC2)c(=O)n2nc(C3=CCOCC3)nc2n1CC(=O)Nc1ccc(C(F)(F)F)cc1Cl` [Example 113, 2-Bromo-N-(2-(4-(4-(2-((2-chloro-4-(trifluoromethyl)phenyl)amino)-2-oxoethyl)-2-(3,6-dihydro-2H-pyran-4-yl)-5-ethyl-7-oxo-4,7-dihydro-[1,2,4]triazolo[1,5-a]pyrimidin-6-yl)piperazin-1-yl)-2-oxoethyl)benzamide], the concentration for half-maximal inhibition (IC50) in assay [1] and in assay [2] was under 100 nM in each case.
For the compound `CCc1c(N2CCN(C(=O)CNC(=O)c3cccc(NC)c3)CC2)c(=O)n2nc(C3=CCOCC3)nc2n1CC(=O)Nc1ccc(C(F)(F)F)cc1Cl` [Example 277, N-(2-(4-(4-(2-((2-Chloro-4-(trifluoromethyl)phenyl)amino)-2-oxoethyl)-2-(3,6-dihydro-2H-pyran-4-yl)-5-ethyl-7-oxo-4,7-dihydro-[1,2,4]triazolo[1,5-a]pyrimidin-6-yl)piperazin-1-yl)-2-oxoethyl)-3-(methylamino)benzamide], the IC50 in assay [1] and in assay [2] was under 100 nM each time.
Take `CCc1c(N2CCN(C(=O)CNC(=O)c3ccccc3)CC2)c(=O)n2nc(C3CC3)nc2n1CC(=O)Nc1ccc(C(F)(F)F)cc1Cl` [Example 238, N-(2-(4-(4-(2-((2-Chloro-4-(trifluoromethyl)phenyl)amino)-2-oxoethyl)-2-cyclopropyl-5-ethyl-7-oxo-4,7-dihydro-[1,2,4]triazolo[1,5-a]pyrimidin-6-yl)piperazin-1-yl)-2-oxoethyl)benzamide]: the IC50 in assay [1] and in assay [2] was 100 to 1000 nM throughout.
With `CCc1c(N2CCN(C(=O)CNC(=O)c3ccccc3)CC2)c(=O)n2nc(C3=CCOCC3)nc2n1CC(=O)N(C)c1ccc(C(F)(F)F)cc1Cl` [Example 143, N-(2-(4-(4-(2-((2-Chloro-4-(trifluoromethyl)phenyl)(methyl)amino)-2-oxoethyl)-2-(3,6-dihydro-2H-pyran-4-yl)-5-ethyl-7-oxo-4,7-dihydro-[1,2,4]triazolo[1,5-a]pyrimidin-6-yl)piperazin-1-yl)-2-oxoethyl)benzamide], the figures for the IC50 in assay [1] and in assay [2] were 100 to 1000 nM and over 1000 nM, respectively.
Consider `CCc1c(N2CCN(C(=O)c3cnc4sccc4c3O)CC2)c(=O)n2nc(C3=CCOCC3)nc2n1CC(=O)Nc1ccc(C(F)(F)F)cc1Cl` [Example 55, N-(2-Chloro-4-(trifluoromethyl)phenyl)-2-(2-(3,6-dihydro-2H-pyran-4-yl)-5-ethyl-6-(4-(4-hydroxythieno[2,3-b]pyridine-5-carbonyl)piperazin-1-yl)-7-oxo-[1,2,4]triazolo[1,5-a]pyrimidin-4(7H)-yl)acetamide], for which the IC50 in assay [1] and in assay [2] was under 100 nM throughout.
